# Reference: PubChem BioAssay AID1963854 (Molecular Pharmacology Branch, DTP, NCI, 2024)
# System: 186277-243-T-J2-PDC complex spheroid viability
# Experiment: Anticancer human tumor 186277-243-T-J2-PDC patient-derived colon adenocarcinoma cell line growth inhibition [POLQ]
# Details: for IC50: curve of first compound; for viability, T/C: stronger effect = lower value
# In short: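 Complex spheroid viability model combining PDC tumour cells with endothelial (HUVEC) and MSC stromal cells. Novobiocin, ART-558 or RP6685 were tested singly and in combination with standard and investigational anticancer drugs. Each was titrated in half-log steps from near clinical Cmax, or from 10 microM where Cmax was unknown.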
# [1] = second compound 0.0316 µM, first compound 0.0316 µM
# [2] = second compound 0.0316 µM, first compound 0.1 µM
# [3] = second compound 0.0316 µM, first compound 0.316 µM
# [4] = second compound 0.0316 µM, first compound 1 µM
# [5] = second compound 0.1 µM, first compound 0.0316 µM
# [6] = second compound 0.1 µM, first compound 0.1 µM
# [7] = second compound 0.1 µM, first compound 0.316 µM
# [8] = second compound 0.1 µM, first compound 1 µM
# [9] = second compound 0.316 µM, first compound 0.0316 µM
# [10] = second compound 0.316 µM, first compound 0.1 µM
# [11] = second compound 0.316 µM, first compound 0.316 µM
# [12] = second compound 0.316 µM, first compound 1 µM
# [13] = second compound 1 µM, first compound 0.0316 µM
# [14] = second compound 1 µM, first compound 0.1 µM
# [15] = second compound 1 µM, first compound 0.316 µM
# [16] = second compound 1 µM, first compound 1 µM
# [17] = second compound 3.16 µM, first compound 0.0316 µM
# [18] = second compound 3.16 µM, first compound 0.1 µM
# [19] = second compound 3.16 µM, first compound 0.316 µM
# [20] = second compound 3.16 µM, first compound 1 µM
# [21] = second compound 10 µM, first compound 0.0316 µM
# [22] = second compound 10 µM, first compound 0.1 µM
# [23] = second compound 10 µM, first compound 0.316 µM
# [24] = second compound 10 µM, first compound 1 µM
# [25] = second compound 0.0316 µM, first compound 3.16 µM
# [26] = second compound 0.0316 µM, first compound 10 µM
# [27] = second compound 0.1 µM, first compound 3.16 µM
# [28] = second compound 0.1 µM, first compound 10 µM
# [29] = second compound 0.316 µM, first compound 3.16 µM
# [30] = second compound 0.316 µM, first compound 10 µM
# [31] = second compound 1 µM, first compound 3.16 µM
# [32] = second compound 1 µM, first compound 10 µM
# [33] = second compound 3.16 µM, first compound 3.16 µM
# [34] = second compound 3.16 µM, first compound 10 µM
# [35] = second compound 10 µM, first compound 3.16 µM
# [36] = second compound 10 µM, first compound 10 µM
# 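Further: spheroids exposed to compounds for seven days.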
# 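Wherever viability, T/C is given: 100% = DMSO vehicle control viability.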
structure (smiles),measurement,setting,value
COc1cccc(OCCCN)c1-c1cc(Nc2cnc(C#N)cn2)n[nH]1 + Cc1cccc(N(C)C(=O)C2C(O)CCN2c2nc(C)cc(C(F)(F)F)c2C#N)c1,IC50,second compound 0.0316 µM,< 3.16 nM
same,IC50,second compound 0.1 µM,< 3.16 nM
same,IC50,second compound 0.316 µM,< 3.16 nM
same,IC50,second compound 1 µM,< 3.16 nM
same,IC50,second compound 3.16 µM,< 3.16 nM
same,IC50,second compound 10 µM,< 3.16 nM
same,"viability, T/C","second compound 0.0316 µM, first compound 0.00316 µM",38.4%
same,"viability, T/C","second compound 0.0316 µM, first compound 0.01 µM",14.9%
same,"viability, T/C",[1],11.1%
same,"viability, T/C",[2],10%
same,"viability, T/C",[3],9.49%
same,"viability, T/C",[4],10.2%
same,"viability, T/C","second compound 0.1 µM, first compound 0.00316 µM",33.4%
same,"viability, T/C","second compound 0.1 µM, first compound 0.01 µM",15.7%
same,"viability, T/C",[5],10.9%
same,"viability, T/C",[6],9.64%
same,"viability, T/C",[7],10.2%
same,"viability, T/C",[8],9.26%
same,"viability, T/C","second compound 0.316 µM, first compound 0.00316 µM",30.1%
same,"viability, T/C","second compound 0.316 µM, first compound 0.01 µM",12%
same,"viability, T/C",[9],10.7%
same,"viability, T/C",[10],10.1%
same,"viability, T/C",[11],9.4%
same,"viability, T/C",[12],8.53%
same,"viability, T/C","second compound 1 µM, first compound 0.00316 µM",30.9%
same,"viability, T/C","second compound 1 µM, first compound 0.01 µM",11.5%
same,"viability, T/C",[13],9.4%
same,"viability, T/C",[14],9.54%
same,"viability, T/C",[15],9.34%
same,"viability, T/C",[16],9.69%
same,"viability, T/C","second compound 3.16 µM, first compound 0.00316 µM",34.2%
same,"viability, T/C","second compound 3.16 µM, first compound 0.01 µM",11.5%
same,"viability, T/C",[17],9.08%
same,"viability, T/C",[18],9.36%
same,"viability, T/C",[19],9.81%
same,"viability, T/C",[20],9.01%
same,"viability, T/C","second compound 10 µM, first compound 0.00316 µM",17.9%
same,"viability, T/C","second compound 10 µM, first compound 0.01 µM",9.92%
same,"viability, T/C",[21],8.74%
same,"viability, T/C",[22],8.3%
same,"viability, T/C",[23],9.78%
same,"viability, T/C",[24],9.02%
COc1cc(C2c3cc4c(cc3C(OC3OC5COC(C)OC5C(O)C3O)C3COC(=O)C23)OCO4)cc(OC)c1O (stereo not drawn) + COC1C(OC(N)=O)C(O)C(Oc2ccc3c(O)c(NC(=O)c4ccc(O)c(CC=C(C)C)c4)c(=O)oc3c2C)OC1(C)C,IC50,second compound 0.0316 µM,727 nM
same,IC50,second compound 0.1 µM,739 nM
same,IC50,second compound 0.316 µM,659 nM
same,IC50,second compound 1 µM,662 nM
same,IC50,second compound 3.16 µM,560 nM
same,IC50,second compound 10 µM,710 nM
same,"viability, T/C",[1],112%
same,"viability, T/C",[2],128%
same,"viability, T/C",[3],76.6%
same,"viability, T/C",[4],40.9%
same,"viability, T/C",[25],25.7%
same,"viability, T/C",[26],11.6%
same,"viability, T/C",[5],98.8%
same,"viability, T/C",[6],113%
same,"viability, T/C",[7],69.9%
same,"viability, T/C",[8],42.1%
same,"viability, T/C",[27],27.3%
same,"viability, T/C",[28],11.9%
same,"viability, T/C",[9],114%
same,"viability, T/C",[10],116%
same,"viability, T/C",[11],67.9%
same,"viability, T/C",[12],39.7%
same,"viability, T/C",[29],24.6%
same,"viability, T/C",[30],11.8%
same,"viability, T/C",[13],118%
same,"viability, T/C",[14],120%
same,"viability, T/C",[15],65.3%
same,"viability, T/C",[16],42.3%
same,"viability, T/C",[31],25.5%
same,"viability, T/C",[32],12.4%
same,"viability, T/C",[17],113%
same,"viability, T/C",[18],124%
same,"viability, T/C",[19],65.1%
same,"viability, T/C",[20],37.6%
same,"viability, T/C",[33],25.3%
same,"viability, T/C",[34],11.3%
same,"viability, T/C",[21],120%
same,"viability, T/C",[22],110%
same,"viability, T/C",[23],69.6%
same,"viability, T/C",[24],40.3%
same,"viability, T/C",[35],26.8%
same,"viability, T/C",[36],11.8%
CCc1cc2c(N3CCc4c(cc(Cn5ccnc5)cc4-c4cn(C)nc4C(F)(F)F)C3=O)ccnc2c(OC)n1 + Nc1ccc(C#CCN(C(=O)Cc2ncc(C(F)(F)F)cc2C(F)(F)F)c2ccc(F)cc2)nn1,IC50,second compound 0.0316 µM,> 10000 nM
same,IC50,second compound 0.1 µM,> 10000 nM
same,IC50,second compound 0.316 µM,> 10000 nM
same,IC50,second compound 1 µM,> 10000 nM
same,IC50,second compound 3.16 µM,> 10000 nM
same,IC50,second compound 10 µM,> 10000 nM
same,"viability, T/C",[1],94.6%
same,"viability, T/C",[2],95.7%
same,"viability, T/C",[3],91.6%
same,"viability, T/C",[4],85.6%
same,"viability, T/C",[25],96.3%
same,"viability, T/C",[26],111%
same,"viability, T/C",[5],90.2%
same,"viability, T/C",[6],92.2%
same,"viability, T/C",[7],100%
same,"viability, T/C",[8],97.8%
same,"viability, T/C",[27],119%
same,"viability, T/C",[28],95.5%
same,"viability, T/C",[9],88.8%
same,"viability, T/C",[10],111%
same,"viability, T/C",[11],90.9%
same,"viability, T/C",[12],108%
same,"viability, T/C",[29],104%
same,"viability, T/C",[30],114%
same,"viability, T/C",[13],103%
same,"viability, T/C",[14],102%
same,"viability, T/C",[15],93.1%
same,"viability, T/C",[16],94.6%
same,"viability, T/C",[31],110%
same,"viability, T/C",[32],105%
same,"viability, T/C",[17],109%
same,"viability, T/C",[18],98.7%
same,"viability, T/C",[19],112%
same,"viability, T/C",[20],100%
same,"viability, T/C",[33],106%
same,"viability, T/C",[34],94.2%
same,"viability, T/C",[21],117%
same,"viability, T/C",[22],99%
same,"viability, T/C",[23],100%
same,"viability, T/C",[24],117%
same,"viability, T/C",[35],121%
same,"viability, T/C",[36],90.9%
O=C(c1cc(Cc2n[nH]c(=O)c3ccccc23)ccc1F)N1CCN(C(=O)C2CC2)CC1 + Nc1ccc(C#CCN(C(=O)Cc2ncc(C(F)(F)F)cc2C(F)(F)F)c2ccc(F)cc2)nn1,IC50,second compound 0.0316 µM,> 10000 nM
same,IC50,second compound 0.1 µM,> 10000 nM
same,IC50,second compound 0.316 µM,> 10000 nM
same,IC50,second compound 1 µM,> 10000 nM
same,IC50,second compound 3.16 µM,> 10000 nM
same,IC50,second compound 10 µM,> 10000 nM
same,"viability, T/C",[1],105%
same,"viability, T/C",[2],89.9%
same,"viability, T/C",[3],106%
same,"viability, T/C",[4],92.3%
same,"viability, T/C",[25],107%
same,"viability, T/C",[26],121%
same,"viability, T/C",[5],97.5%
same,"viability, T/C",[6],91.6%
same,"viability, T/C",[7],111%
same,"viability, T/C",[8],101%
same,"viability, T/C",[27],104%
same,"viability, T/C",[28],117%
same,"viability, T/C",[9],100%
same,"viability, T/C",[10],96.7%
same,"viability, T/C",[11],98.2%
same,"viability, T/C",[12],93.7%
same,"viability, T/C",[29],102%
same,"viability, T/C",[30],120%
same,"viability, T/C",[13],96.1%
same,"viability, T/C",[14],101%
same,"viability, T/C",[15],98.7%
same,"viability, T/C",[16],105%
same,"viability, T/C",[31],115%
same,"viability, T/C",[32],108%
same,"viability, T/C",[17],95%
same,"viability, T/C",[18],107%
same,"viability, T/C",[19],110%
same,"viability, T/C",[20],95.2%
same,"viability, T/C",[33],110%
same,"viability, T/C",[34],105%
same,"viability, T/C",[21],106%
same,"viability, T/C",[22],110%
same,"viability, T/C",[23],99.5%
same,"viability, T/C",[24],102%
same,"viability, T/C",[35],117%
same,"viability, T/C",[36],95.1%
